Tests used:
[1] = target: Estrogen receptor (Homo sapiens, UniProt Q92731+P03372); assay: In vitro antagonistic activity against human estrogen receptor (hER); not active; format: functional
[2] = target: T1, Glucocorticoid receptor (Homo sapiens, UniProt P04150); assay: In vitro antagonistic activity against human glucocorticoid receptor (hGR); not active; format: functional
T1 sequence (P04150 whole entry): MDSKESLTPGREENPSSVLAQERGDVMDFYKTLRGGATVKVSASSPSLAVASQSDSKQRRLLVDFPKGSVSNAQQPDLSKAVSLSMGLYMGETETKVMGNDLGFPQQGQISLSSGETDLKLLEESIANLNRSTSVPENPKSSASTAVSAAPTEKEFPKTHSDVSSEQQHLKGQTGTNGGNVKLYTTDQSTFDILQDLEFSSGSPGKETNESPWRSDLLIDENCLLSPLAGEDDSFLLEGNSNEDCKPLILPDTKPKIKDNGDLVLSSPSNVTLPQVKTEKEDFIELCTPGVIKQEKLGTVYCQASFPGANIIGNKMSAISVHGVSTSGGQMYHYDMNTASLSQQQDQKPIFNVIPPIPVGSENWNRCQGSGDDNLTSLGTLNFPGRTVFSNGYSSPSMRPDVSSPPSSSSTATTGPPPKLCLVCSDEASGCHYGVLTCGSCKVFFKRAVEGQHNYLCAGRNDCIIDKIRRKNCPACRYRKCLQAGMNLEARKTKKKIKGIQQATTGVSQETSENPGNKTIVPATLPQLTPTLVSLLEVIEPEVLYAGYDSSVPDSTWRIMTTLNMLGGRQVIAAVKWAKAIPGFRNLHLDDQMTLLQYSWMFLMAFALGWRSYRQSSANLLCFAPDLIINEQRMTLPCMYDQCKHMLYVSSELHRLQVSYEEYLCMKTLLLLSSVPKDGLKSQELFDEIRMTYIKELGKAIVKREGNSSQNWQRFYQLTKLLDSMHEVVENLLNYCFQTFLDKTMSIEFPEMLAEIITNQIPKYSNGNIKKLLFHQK

[3] = target: T2, Androgen receptor (Homo sapiens, UniProt P10275); assay: biochemical
T2 sequence (P10275 whole entry): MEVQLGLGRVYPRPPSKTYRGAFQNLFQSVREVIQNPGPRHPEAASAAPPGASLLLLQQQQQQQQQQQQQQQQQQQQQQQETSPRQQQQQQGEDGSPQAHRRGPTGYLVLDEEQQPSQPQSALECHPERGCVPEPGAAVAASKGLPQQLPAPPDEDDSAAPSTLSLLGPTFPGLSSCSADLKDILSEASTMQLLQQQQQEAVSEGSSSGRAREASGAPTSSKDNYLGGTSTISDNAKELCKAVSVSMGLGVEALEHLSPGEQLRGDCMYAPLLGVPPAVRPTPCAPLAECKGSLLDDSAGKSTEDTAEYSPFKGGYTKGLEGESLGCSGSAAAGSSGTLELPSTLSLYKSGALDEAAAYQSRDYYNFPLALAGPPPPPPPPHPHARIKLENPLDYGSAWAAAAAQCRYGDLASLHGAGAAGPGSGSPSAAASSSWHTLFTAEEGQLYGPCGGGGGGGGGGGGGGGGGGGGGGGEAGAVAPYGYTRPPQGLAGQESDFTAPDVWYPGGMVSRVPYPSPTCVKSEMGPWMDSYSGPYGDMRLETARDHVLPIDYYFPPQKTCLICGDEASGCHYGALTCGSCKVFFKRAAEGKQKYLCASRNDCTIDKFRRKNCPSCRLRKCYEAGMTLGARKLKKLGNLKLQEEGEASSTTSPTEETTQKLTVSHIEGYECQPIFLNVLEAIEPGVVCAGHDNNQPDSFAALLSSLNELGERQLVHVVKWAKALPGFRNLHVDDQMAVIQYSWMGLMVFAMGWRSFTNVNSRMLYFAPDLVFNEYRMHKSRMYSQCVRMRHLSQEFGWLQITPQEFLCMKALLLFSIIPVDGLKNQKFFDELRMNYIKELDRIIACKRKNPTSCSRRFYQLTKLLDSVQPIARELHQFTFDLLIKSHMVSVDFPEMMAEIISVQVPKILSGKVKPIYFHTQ
Description: In vitro binding affinity at human androgen receptor transfected into COS cells.

[4] = target: T3, Mineralocorticoid receptor (Homo sapiens, UniProt P08235); assay: In vitro antagonistic activity against human mineralocorticoid receptor (hMR); not active; format: functional
T3 sequence (P08235 whole entry): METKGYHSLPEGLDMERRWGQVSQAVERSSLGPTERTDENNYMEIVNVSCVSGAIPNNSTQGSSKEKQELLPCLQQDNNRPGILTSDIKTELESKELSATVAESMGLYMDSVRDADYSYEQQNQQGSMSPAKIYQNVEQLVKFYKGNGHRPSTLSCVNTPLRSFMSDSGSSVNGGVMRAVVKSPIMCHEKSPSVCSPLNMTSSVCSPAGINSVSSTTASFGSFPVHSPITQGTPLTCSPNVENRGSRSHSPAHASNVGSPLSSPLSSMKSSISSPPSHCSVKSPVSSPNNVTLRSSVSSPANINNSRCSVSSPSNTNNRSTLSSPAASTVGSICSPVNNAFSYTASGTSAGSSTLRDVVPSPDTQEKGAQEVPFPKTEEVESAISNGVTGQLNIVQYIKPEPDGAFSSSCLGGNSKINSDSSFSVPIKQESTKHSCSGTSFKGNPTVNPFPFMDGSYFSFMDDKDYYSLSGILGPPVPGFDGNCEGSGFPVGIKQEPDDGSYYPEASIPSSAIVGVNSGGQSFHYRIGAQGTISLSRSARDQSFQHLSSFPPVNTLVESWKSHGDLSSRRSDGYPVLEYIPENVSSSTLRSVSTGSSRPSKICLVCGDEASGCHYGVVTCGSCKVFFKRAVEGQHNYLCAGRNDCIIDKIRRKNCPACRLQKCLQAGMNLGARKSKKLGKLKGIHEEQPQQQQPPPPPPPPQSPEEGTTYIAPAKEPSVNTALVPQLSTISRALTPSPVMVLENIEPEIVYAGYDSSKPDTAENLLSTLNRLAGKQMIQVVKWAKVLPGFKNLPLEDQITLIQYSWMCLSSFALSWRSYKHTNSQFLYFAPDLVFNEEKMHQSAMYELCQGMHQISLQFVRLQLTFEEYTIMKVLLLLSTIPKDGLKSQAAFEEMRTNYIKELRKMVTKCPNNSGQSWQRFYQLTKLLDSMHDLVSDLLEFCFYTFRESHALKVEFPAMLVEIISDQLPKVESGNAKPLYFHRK

[5] = target: T4, Mineralocorticoid receptor (Homo sapiens) (UniProt P08235); assay: In vitro antagonistic activity against human mineralocorticoid receptor (hMR); format: functional
T4 sequence (whole entry): T3 sequence (P08235 whole entry)

[6] = target: T2, Androgen receptor
Description: In vitro agonistic activity against human androgen receptor using cotransfection assay in CV-1 cells.

| Structure (SMILES) | IC50 [1] [nM] | IC50 [2] [nM] | IC50 [3] [nM] | IC50 [4] [nM] | Efficacy [5] [%] | EC50 [6] [nM] |
| --- | --- | --- | --- | --- | --- | --- |
| CCCC1CCNc2cc3oc(=O)cc(C(F)(F)F)c3cc21 (stereo not given) | > 10000 | > 10000 | 5 | > 10000 | < 20 | 5 |
| CCC1CCNc2cc3oc(=O)cc(C(F)(F)F)c3cc21 (stereo not given) | > 10000 | > 10000 | 1 | > 10000 | < 20 | 2 |
| CC1CCNc2cc3oc(=O)cc(C(F)(F)F)c3cc21 (stereo not given) | > 10000 | > 10000 | 1 | > 10000 | < 20 | 2 |
| O=c1cc(C(F)(F)F)c2cc3c(cc2o1)NCCC3C(F)(F)F (stereo not given) | > 10000 | > 10000 | 2 | > 10000 | < 20 | 2 |
| CCC1Nc2cc3oc(=O)cc(C(F)(F)F)c3cc2CC1C (stereo not given) | > 10000 | > 10000 | 7 | > 10000 | < 20 | 1 |
